# Test results published in ChEMBL document CHEMBL1157496, “Design, synthesis, and evaluation of a novel 4-aminomethyl-4-fluoropiperidine as a T-type Ca2+ channel antagonist” (J Med Chem, 2008).
# Key:
# [1] = target: Voltage-dependent T-type calcium channel subunit alpha-1I (Homo sapiens) (UniProt Q9P0X4); experiment: Antagonist activity at T type calcium channel Cav3.3 alpha1i at -60 mV by FLIPR assay; assay type: functional
# [2] = target: Voltage-dependent T-type calcium channel subunit alpha-1I (Homo sapiens) (UniProt Q9P0X4); experiment: Antagonist activity at T type calcium channel Cav3.3 alpha1i at -20 mV by FLIPR assay; assay type: functional
# Rattus norvegicus [3] = organism: Rattus norvegicus; experiment: Decrease in seizure time in Wistar albino Glaxo rat model of absence epilepsy after 4 hrs; assay type: functional
# [4] = target: Voltage-gated inwardly rectifying potassium channel KCNH2 (Homo sapiens, UniProt Q12809)
# [5] = Binding affinity to L type calcium channel by binding assay
# [6] = target: Voltage-dependent T-type calcium channel subunit alpha-1G (Homo sapiens) (UniProt O43497); experiment: Antagonist activity at T type calcium channel Cav3.1 alpha-1G at -100 mV by voltage-clamp electrophysiology assay; assay type: functional
# [7] = target: Voltage-dependent T-type calcium channel subunit alpha-1H (Homo sapiens) (UniProt O95180); experiment: Antagonist activity at T type calcium channel Cav3.2 alpha-1H at -100 mV by voltage-clamp electrophysiology assay; assay type: functional
# [8] = Ratio of drug level in brain to plasma in rat after 9 hrs; assay type: ADME, cell-free
# [9] = Ratio of drug level in cerebrospinal fluid to plasma in rat after 9 hrs; assay type: ADME, CSF/Plasma
# Rattus norvegicus [10] = organism: Rattus norvegicus; experiment: Decrease in tremor activity in harmaline-induced rat model; assay type: functional, organism-based
# [11] = Binding affinity to sigma receptor
# [12] = Antagonist activity at sigma receptor in guinea pig vas deferens at 30 uM; assay type: functional, Cavia porcellus; set-up: scale not given: the % may be the effect or the level left
# [13] = target: Sodium channel protein type 5 subunit alpha (Homo sapiens, UniProt Q14524); experiment: Inhibition of sodium channel Nav1.5 by voltage-clamp method
# [14] = target: Voltage-dependent N-type calcium channel subunit alpha-1B (Homo sapiens) (UniProt Q00975); experiment: Inhibition of calcium channel Cav2.2 at 10 uM by high throughput assay
# [15] = Drug level in dog plasma at 1.29 mg/kg, iv measured at end of 60 mins infusion; assay type: ADME, organism-based, Canis lupus familiaris; set-up: dose 1.29 mg/kg, route intravenous; conditions: read-out: Drug uptake
# [16] = Drug level in dog plasma at 4.30 mg/kg, iv measured at end of 60 mins infusion; assay type: ADME, organism-based, Canis lupus familiaris; set-up: dose 4.3 mg/kg, route intravenous; conditions: 4.3 mg/kg, read-out: Drug uptake
# Canis familiaris [17] = experiment: Toxicity in dog assessed as effect on glomerular filtration at 20 mg/kg, po after 3 hrs; assay type: organism-based, Canis lupus familiaris; set-up: dose 20 mg/kg, route oral; conditions: in vivo
# Canis familiaris [18] = experiment: Toxicity in dog assessed as effect on renal plasma flow at 20 mg/kg, po after 3 hrs; assay type: organism-based, Canis lupus familiaris; set-up: dose 20 mg/kg, route oral; conditions: in vivo
# Canis familiaris [19] = experiment: Toxicity in dog assessed as effect on urine flow at 20 mg/kg, po after 3 hrs; assay type: organism-based, Canis lupus familiaris; set-up: dose 20 mg/kg, route oral; conditions: in vivo
# Canis familiaris [20] = experiment: Toxicity in dog assessed as effect on urinary excretion of sodium and potassium at 20 mg/kg, po after 3 hrs; assay type: organism-based, Canis lupus familiaris, Urine; set-up: dose 20 mg/kg, route oral; conditions: in vivo
# [21] = Cmax in monkey at 2 mg/kg, po; assay type: ADME, organism-based, Macaca mulatta; set-up: dose 2 mg/kg, route oral; conditions: rhesus monkey, in vivo
# [22] = Tmax in monkey at 2 mg/kg, po; assay type: ADME, organism-based, Macaca mulatta; set-up: dose 2 mg/kg, route oral; conditions: rhesus monkey, in vivo
# Canis familiaris [23] = experiment: Toxicity in dog assessed as effect on plasma electrolytes at 20 mg/kg, po after 3 hrs; assay type: organism-based, Canis lupus familiaris; set-up: dose 20 mg/kg, route oral; conditions: in vivo
# Canis familiaris [24] = experiment: Toxicity in dog assessed as effect on blood pressure at 20 mg/kg, po after 3 hrs; assay type: organism-based, Canis lupus familiaris; set-up: dose 20 mg/kg, route oral; conditions: in vivo
# Canis familiaris [25] = experiment: Toxicity in dog assessed as effect on ECG intervals at 20 mg/kg, po after 3 hrs; assay type: organism-based, Canis lupus familiaris; set-up: dose 20 mg/kg, route oral; conditions: in vivo
# Canis familiaris [26] = experiment: Toxicity in dog assessed as increase in heart rate at 20 mg/kg, po after 3 hrs; assay type: organism-based, Canis lupus familiaris; set-up: dose 20 mg/kg, route oral; conditions: in vivo
# Canis familiaris [27] = experiment: Drug level in dog plasma at 20 mg/kg, po; assay type: ADME, organism-based, Canis lupus familiaris; set-up: dose 20 mg/kg, route oral; conditions: in vivo, read-out: Drug uptake
# [28] = Protein binding in rat plasma; assay type: ADME, cell-free; conditions: read-out: PPB (converted)
# [29] = Clearance in rat at 1 mg/kg, iv; assay type: ADME, organism-based; set-up: dose 1 mg/kg, route intravenous; conditions: in vivo
# [30] = Half life in rat at 1 mg/kg, iv; assay type: ADME, organism-based; set-up: dose 1 mg/kg, route intravenous; conditions: in vivo
# [31] = Volume of distribution at steady state in rat at 1 mg/kg, iv; assay type: ADME, organism-based; set-up: dose 1 mg/kg, route intravenous; conditions: in vivo, read-out: Vdss
# [32] = Cmax in rat at 10 mg/kg, po; assay type: ADME, organism-based; set-up: dose 10 mg/kg, route oral; conditions: in vivo
# [33] = Tmax in rat at 10 mg/kg, po; assay type: ADME, organism-based; set-up: dose 10 mg/kg, route oral; conditions: in vivo
# [34] = AUC (0 to 24 hrs) in rat at 10 mg/kg, po; assay type: ADME, organism-based; set-up: time < 24 hr, dose 10 mg/kg, route oral; conditions: plasma
# [35] = Oral bioavailability in rat at 10 mg/kg; assay type: ADME, organism-based; conditions: in vivo
# [36] = Protein binding in dog plasma; assay type: ADME, cell-free, Canis lupus familiaris; conditions: read-out: PPB
# [37] = Clearance in dog at 0.5 mg/kg, iv; assay type: ADME, organism-based, Canis lupus familiaris; set-up: dose 0.5 mg/kg, route intravenous; conditions: in vivo
# [38] = Half life in dog at 0.5 mg/kg, iv; assay type: ADME, organism-based, Canis lupus familiaris; set-up: dose 0.5 mg/kg, route intravenous; conditions: in vivo
# [39] = Volume of distribution at steady state in dog at 0.5 mg/kg, iv; assay type: ADME, organism-based, Canis lupus familiaris; set-up: dose 0.5 mg/kg, route intravenous; conditions: in vivo, read-out: Vdss
# [40] = Cmax in dog at 1 mg/kg, po; assay type: ADME, organism-based, Canis lupus familiaris; set-up: dose 1 mg/kg, route oral; conditions: in vivo
# [41] = Tmax in dog at 1 mg/kg, po; assay type: ADME, organism-based, Canis lupus familiaris; set-up: dose 1 mg/kg, route oral; conditions: in vivo
# [42] = AUC (0 to 24 hrs) in dog at 1 mg/kg, po; assay type: ADME, organism-based, Canis lupus familiaris; set-up: time < 24 hr, dose 1 mg/kg, route oral; conditions: plasma
# [43] = Oral bioavailability in dog at 1 mg/kg; assay type: ADME, organism-based, Canis lupus familiaris; conditions: in vivo
# [44] = Protein binding in monkey plasma; assay type: ADME, cell-free, Macaca mulatta; conditions: rhesus monkey, read-out: PPB (converted)
# [45] = Clearance in monkey at 0.5 mg/kg, iv; assay type: ADME, organism-based, Macaca mulatta; set-up: dose 0.5 mg/kg, route intravenous; conditions: rhesus monkey, in vivo
# [46] = Half life in monkey at 0.5 mg/kg, iv; assay type: ADME, organism-based, Macaca mulatta; set-up: dose 0.5 mg/kg, route intravenous; conditions: rhesus monkey, in vivo
# [47] = Volume of distribution at steady state in monkey at 0.5 mg/kg, iv; assay type: ADME, organism-based, Macaca mulatta; set-up: dose 0.5 mg/kg, route intravenous; conditions: rhesus monkey, in vivo, read-out: Vdss
# [48] = AUC (0 to 24 hrs) in monkey at 2 mg/kg, po; assay type: ADME, organism-based, Macaca mulatta; set-up: time < 24 hr, dose 2 mg/kg, route oral; conditions: rhesus monkey, plasma
# [49] = Oral bioavailability in monkey at 2 mg/kg; assay type: ADME, organism-based, Macaca mulatta; conditions: rhesus monkey, in vivo
# [50] = Antagonist activity at T type calcium channel at -80 mV by voltage-clamp electrophysiology assay; assay type: functional
# [51] = Antagonist activity at T type calcium channel at -100 mV by voltage-clamp electrophysiology assay; assay type: functional
# [52] = Cmax in Wistar albino Glaxo rat model of absence epilepsy at 1 mg/kg; assay type: ADME, organism-based; set-up: dose 1 mg/kg; conditions: in vivo
# [53] = Cmax in Wistar albino Glaxo rat model of absence epilepsy at 3 mg/kg; assay type: ADME, organism-based; set-up: dose 3 mg/kg; conditions: in vivo
# [54] = Cmax in Wistar albino Glaxo rat model of absence epilepsy at 10 mg/kg; assay type: ADME, organism-based; set-up: dose 10 mg/kg; conditions: in vivo
# [55] = AUC (0 to 4 hrs) in Wistar albino Glaxo rat model of absence epilepsy at 1 mg/kg; assay type: ADME, organism-based; set-up: time < 4 hr, dose 1 mg/kg; conditions: in vivo
# [56] = AUC (0 to 4 hrs) in Wistar albino Glaxo rat model of absence epilepsy at 3 mg/kg; assay type: ADME, organism-based; set-up: time < 4 hr, dose 3 mg/kg; conditions: in vivo
# [57] = AUC (0 to 4 hrs) in Wistar albino Glaxo rat model of absence epilepsy at 10 mg/kg; assay type: ADME, organism-based; set-up: time < 4 hr, dose 10 mg/kg; conditions: in vivo
# [58] = Inhibition of sodium channel site 2 by binding assay
# Chain of Voltage-dependent T-type calcium channel subunit alpha-1I (Homo sapiens) (Q9P0X4 whole entry): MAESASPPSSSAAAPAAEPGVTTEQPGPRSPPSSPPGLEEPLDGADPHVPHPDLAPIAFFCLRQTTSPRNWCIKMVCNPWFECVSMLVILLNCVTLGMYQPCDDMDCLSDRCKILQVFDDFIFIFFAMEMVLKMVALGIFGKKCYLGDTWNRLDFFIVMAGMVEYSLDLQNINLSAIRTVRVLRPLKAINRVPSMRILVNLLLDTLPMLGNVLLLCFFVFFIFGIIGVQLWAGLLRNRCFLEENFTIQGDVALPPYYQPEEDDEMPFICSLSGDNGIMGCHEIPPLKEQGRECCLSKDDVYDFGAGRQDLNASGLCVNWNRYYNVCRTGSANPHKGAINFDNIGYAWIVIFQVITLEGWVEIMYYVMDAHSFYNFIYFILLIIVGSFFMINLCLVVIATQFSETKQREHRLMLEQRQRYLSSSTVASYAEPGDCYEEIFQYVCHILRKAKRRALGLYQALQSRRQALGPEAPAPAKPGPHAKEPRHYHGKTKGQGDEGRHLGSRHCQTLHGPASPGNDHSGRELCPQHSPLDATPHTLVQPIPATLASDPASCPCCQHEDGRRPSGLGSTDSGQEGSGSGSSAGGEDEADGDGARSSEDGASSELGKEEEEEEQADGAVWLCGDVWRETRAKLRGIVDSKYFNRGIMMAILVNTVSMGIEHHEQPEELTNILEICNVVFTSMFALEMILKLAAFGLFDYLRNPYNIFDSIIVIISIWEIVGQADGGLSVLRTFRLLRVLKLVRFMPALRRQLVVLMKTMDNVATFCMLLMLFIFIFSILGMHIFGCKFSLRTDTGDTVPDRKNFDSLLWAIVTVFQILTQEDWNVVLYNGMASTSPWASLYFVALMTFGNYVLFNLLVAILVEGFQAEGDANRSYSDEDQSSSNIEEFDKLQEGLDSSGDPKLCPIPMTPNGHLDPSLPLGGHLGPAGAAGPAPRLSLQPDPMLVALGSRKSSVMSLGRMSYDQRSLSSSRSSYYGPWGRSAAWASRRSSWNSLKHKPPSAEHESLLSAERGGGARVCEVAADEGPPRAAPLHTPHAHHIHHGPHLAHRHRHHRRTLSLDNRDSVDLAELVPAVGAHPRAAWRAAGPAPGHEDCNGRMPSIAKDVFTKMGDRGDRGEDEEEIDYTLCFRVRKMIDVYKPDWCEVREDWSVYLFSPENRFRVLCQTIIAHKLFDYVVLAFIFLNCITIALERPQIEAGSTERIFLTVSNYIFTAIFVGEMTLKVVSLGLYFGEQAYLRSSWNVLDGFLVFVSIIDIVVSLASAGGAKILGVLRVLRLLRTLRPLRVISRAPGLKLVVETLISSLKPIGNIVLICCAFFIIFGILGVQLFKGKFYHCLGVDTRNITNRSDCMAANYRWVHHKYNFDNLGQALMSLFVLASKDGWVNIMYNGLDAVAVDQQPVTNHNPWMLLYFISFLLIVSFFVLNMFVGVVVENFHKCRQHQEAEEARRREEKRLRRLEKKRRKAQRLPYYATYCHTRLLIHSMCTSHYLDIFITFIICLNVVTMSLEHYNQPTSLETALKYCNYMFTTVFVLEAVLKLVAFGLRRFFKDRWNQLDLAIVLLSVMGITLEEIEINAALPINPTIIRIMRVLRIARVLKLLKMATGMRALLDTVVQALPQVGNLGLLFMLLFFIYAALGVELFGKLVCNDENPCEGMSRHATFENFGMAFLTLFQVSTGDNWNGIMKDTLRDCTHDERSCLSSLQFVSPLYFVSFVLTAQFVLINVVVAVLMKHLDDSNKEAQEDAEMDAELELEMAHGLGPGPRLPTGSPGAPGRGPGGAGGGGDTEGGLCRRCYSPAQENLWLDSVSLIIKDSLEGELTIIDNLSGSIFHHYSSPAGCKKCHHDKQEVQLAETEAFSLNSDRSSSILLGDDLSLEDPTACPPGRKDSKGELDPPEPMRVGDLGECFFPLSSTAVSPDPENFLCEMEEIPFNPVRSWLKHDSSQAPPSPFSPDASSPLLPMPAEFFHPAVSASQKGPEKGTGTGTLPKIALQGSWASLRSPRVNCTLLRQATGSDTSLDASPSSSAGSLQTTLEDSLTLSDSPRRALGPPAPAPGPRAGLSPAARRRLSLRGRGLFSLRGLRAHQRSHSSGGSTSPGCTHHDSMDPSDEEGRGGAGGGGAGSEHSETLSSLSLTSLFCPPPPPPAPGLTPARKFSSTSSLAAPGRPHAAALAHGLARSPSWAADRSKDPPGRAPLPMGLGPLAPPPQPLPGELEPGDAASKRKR
# Chain of Voltage-gated inwardly rectifying potassium channel KCNH2 (Q12809 whole entry): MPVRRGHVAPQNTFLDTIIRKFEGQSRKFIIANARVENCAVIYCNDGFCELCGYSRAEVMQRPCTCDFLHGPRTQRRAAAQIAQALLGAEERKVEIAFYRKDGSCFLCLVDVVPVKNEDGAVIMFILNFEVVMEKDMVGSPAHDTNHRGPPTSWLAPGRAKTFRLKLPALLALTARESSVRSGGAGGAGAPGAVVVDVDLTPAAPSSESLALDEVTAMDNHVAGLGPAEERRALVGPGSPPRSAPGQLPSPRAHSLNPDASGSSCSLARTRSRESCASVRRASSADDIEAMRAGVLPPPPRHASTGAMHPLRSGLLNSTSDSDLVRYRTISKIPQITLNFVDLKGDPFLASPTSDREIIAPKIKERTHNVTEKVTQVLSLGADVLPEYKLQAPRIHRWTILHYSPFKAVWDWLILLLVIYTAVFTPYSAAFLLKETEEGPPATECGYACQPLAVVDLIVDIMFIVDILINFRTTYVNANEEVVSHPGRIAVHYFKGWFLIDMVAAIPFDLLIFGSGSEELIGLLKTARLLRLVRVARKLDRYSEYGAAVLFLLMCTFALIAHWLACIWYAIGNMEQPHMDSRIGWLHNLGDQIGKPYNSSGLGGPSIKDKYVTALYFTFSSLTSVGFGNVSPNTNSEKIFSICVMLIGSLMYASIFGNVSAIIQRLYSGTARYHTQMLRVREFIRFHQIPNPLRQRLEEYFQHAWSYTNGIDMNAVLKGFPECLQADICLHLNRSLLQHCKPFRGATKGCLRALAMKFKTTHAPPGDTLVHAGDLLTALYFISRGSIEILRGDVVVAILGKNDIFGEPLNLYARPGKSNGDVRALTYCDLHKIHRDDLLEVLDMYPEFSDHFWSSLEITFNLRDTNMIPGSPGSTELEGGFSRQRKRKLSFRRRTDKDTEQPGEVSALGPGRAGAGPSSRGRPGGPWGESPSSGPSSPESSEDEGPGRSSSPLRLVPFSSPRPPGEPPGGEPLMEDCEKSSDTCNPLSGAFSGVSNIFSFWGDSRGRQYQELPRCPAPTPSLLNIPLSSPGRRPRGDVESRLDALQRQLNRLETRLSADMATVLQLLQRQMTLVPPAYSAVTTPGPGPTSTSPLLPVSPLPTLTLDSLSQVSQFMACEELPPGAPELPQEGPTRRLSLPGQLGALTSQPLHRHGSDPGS
compound,measurement,setting,value
CC1(C)CC(CN2CCC(F)(CNC(=O)c3cc(Cl)cc(Cl)c3)CC2)CCO1 (racemic),Activity,[1],333 nM
same,Activity,[2],145 nM
CC1(C)C[C@H](CN2CCC(F)(CNC(=O)c3cc(Cl)cc(Cl)c3)CC2)CCO1,inhibition (INH),Rattus norvegicus [3],63%
same,Activity,[1],297 nM
same,Activity,[2],94 nM
CC(C)(C)CCN1CCC(F)(CNC(=O)c2cc(Cl)cc(Cl)c2)CC1,Activity,[1],64 nM
same,Activity,[2],66 nM
same,IC50,[4],2220 nM
same,IC50,[5],940 nM
CC1(C)C[C@@H](CN2CCC(F)(CNC(=O)c3cc(Cl)cc(Cl)c3)CC2)CCO1,Activity,[6],93 nM
same,Activity,[7],196 nM
same,Kp at 9 h,[8],6
same,Kp at 9 h,[9],2.8
same,inhibition (INH),Rattus norvegicus [3],81%
same,Activity,Rattus norvegicus [10],Dose-dependent effect
same,Ki,[11],< 100 nM
same,Activity,[12],30%
same,IC50,[13],84000 nM
same,inhibition,[14],18%
same,concentration at 1 h,[15],1500 nM
same,concentration at 1 h,[16],4600 nM
same,Activity,Canis familiaris [17],Non-toxic
same,Activity,Canis familiaris [18],Non-toxic
same,Activity,Canis familiaris [19],Non-toxic
same,Activity,Canis familiaris [20],Non-toxic
same,Cmax,[21],580 nM
same,Tmax,[22],1.5 h
same,Activity,[1],181 nM
same,Activity,[2],84 nM
same,Activity,Canis familiaris [23],Non-toxic
same,Activity,Canis familiaris [24],Non-toxic
same,Activity,Canis familiaris [25],Non-toxic
same,Activity,Canis familiaris [26],Toxic
same,concentration,Canis familiaris [27],34500 nM
same,fraction unbound,[28],0.057
same,clearance,[29],75 mL/min/kg
same,half-life,[30],1.8 h
same,Vd,[31],10 L/kg
same,Cmax,[32],480 nM
same,Tmax,[33],0.7 h
same,AUC(0-t) at 24 h,[34],1.94 µM·h
same,bioavailability,[35],36%
same,fraction unbound,[36],0.01
same,clearance,[37],2.3 mL/min/kg
same,half-life,[38],4.7 h
same,Vd,[39],1 L/kg
same,Cmax,[40],2180 nM
same,Tmax,[41],3.1 h
same,AUC(0-t) at 24 h,[42],15.8 µM·h
same,bioavailability,[43],87%
same,fraction unbound,[44],0.025
same,clearance,[45],13.6 mL/min/kg
same,half-life,[46],3.3 h
same,Vd,[47],3.8 L/kg
same,AUC(0-t) at 24 h,[48],3.2 µM·h
same,bioavailability,[49],44%
same,Activity,[50],115 nM
same,Activity,[51],84 nM
same,Cmax,[52],60 nM
same,Cmax,[53],190 nM
same,Cmax,[54],1000 nM
same,AUC(0-t) at 4 h,[55],0.15 µM·h
same,AUC(0-t) at 4 h,[56],0.54 µM·h
same,AUC(0-t) at 4 h,[57],2.96 µM·h
same,IC50,[58],1900 nM
CC(C)(C)CCN1CCC(CNC(=O)c2cc(Cl)cc(Cl)c2)CC1,Activity,[1],98 nM
